The source of these data is patent publication US20060183902A1, “Dihydroindolyl methanones as alpha 1a/1d adrenoreceptor modulators for the treatment of benign prostatic hypertrophy and lower urinary tract symptoms” (priority 2005, published 2006).

“And” between values parts separate entries of the source, which are not always exact repeats. Equal values may be shown once. Read-outs that look alike come from different tables or passages of the source.

In one series the target is T1, α1a-AR (Homo sapiens, UniProt P35348).
T1 construct: expressed in transfected cells; host or cells: COS-7
T1 sequence (P35348 1-466): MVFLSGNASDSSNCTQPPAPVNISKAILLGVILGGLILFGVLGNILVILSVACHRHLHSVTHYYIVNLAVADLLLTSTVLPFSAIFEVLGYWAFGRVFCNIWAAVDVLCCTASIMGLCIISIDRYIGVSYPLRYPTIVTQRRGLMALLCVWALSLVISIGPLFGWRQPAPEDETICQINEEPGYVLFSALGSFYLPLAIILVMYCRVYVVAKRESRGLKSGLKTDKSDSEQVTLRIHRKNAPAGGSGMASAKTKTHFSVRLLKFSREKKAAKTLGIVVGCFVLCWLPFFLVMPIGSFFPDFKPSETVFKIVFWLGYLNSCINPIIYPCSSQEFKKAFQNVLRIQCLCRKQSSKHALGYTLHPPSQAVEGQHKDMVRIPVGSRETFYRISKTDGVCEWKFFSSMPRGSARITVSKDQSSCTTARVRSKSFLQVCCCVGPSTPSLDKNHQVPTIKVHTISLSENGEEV
The series can be described thus: α1-Adrenergic receptor radio-ligand (125I-HEAT) binding assay, α1a subtype. As to conditions: COS-7 cell membranes transfected with α1a-AR, 125I-HEAT 50 pM. The essentials:
(§1)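 Membranes from COS-7 cells transfected with a single α1-AR subtype, incubated 1 h at rt with 50 pM 125I-HEAT and compound (1 pM–10 µM, half-log steps, final) in Tris/EDTA/NaCl pH 7.4. Bound radioactivity collected by GF/C filtration and scintillation counting, triplicates; Ki derived.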

The target of another series is T2, α1b-AR (Homo sapiens, UniProt P35368).
T2 construct: expressed in transfected cells; host or cells: COS-7
T2 sequence (P35368 1-520): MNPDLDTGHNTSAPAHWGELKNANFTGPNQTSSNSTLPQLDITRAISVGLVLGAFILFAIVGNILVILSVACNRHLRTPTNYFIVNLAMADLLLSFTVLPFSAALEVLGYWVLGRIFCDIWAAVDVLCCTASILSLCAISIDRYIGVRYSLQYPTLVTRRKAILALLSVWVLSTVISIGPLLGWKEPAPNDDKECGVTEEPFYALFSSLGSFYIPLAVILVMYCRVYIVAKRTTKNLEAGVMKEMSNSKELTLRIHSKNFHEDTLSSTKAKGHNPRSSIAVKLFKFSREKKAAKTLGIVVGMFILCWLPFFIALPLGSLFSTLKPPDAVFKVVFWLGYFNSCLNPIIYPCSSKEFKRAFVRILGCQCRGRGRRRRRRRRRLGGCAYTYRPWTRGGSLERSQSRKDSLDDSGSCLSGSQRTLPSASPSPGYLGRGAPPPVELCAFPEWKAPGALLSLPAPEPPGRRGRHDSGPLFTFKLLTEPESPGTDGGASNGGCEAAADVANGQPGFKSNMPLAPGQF
Kind of series: α1-Adrenergic receptor radio-ligand (125I-HEAT) binding assay, α1b subtype. As to conditions: COS-7 cell membranes transfected with α1b-AR, 125I-HEAT 50 pM. Put shortly: as §1

The next series deals with T3, α1d-AR (Homo sapiens, UniProt P25100).
T3 construct: expressed in transfected cells; host or cells: COS-7
T3 sequence (P25100 1-572): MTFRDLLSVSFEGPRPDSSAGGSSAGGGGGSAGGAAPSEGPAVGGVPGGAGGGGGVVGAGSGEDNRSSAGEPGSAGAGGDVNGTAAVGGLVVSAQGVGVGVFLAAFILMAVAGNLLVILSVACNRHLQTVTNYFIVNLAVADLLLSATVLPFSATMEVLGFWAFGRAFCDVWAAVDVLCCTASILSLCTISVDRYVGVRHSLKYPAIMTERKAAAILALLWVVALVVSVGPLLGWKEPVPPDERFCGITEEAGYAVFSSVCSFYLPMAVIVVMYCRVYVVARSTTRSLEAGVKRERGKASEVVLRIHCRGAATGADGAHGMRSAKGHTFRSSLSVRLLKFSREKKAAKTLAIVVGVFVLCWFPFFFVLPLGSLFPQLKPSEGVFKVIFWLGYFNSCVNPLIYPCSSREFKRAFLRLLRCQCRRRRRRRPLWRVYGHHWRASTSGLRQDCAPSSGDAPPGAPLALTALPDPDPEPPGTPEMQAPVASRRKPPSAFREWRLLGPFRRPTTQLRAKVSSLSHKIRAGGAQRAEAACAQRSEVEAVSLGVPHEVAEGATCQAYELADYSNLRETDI
The series can be described thus: α1-Adrenergic receptor radio-ligand (125I-HEAT) binding assay, α1d subtype. The following applies: COS-7 cell membranes transfected with α1d-AR, 125I-HEAT 50 pM. Put shortly: as §1

Setting [1] is: read-out: Receptor Binding, Ki α1a-AR.
[2] abbreviates: read-out: Receptor Binding, Ki α1b-AR.
[3] abbreviates: read-out: Receptor Binding, Ki α1d-AR.

As usually defined, the Ki is the dissociation constant of the complex between target and ligand, obtained from inhibition or displacement. For orientation: melting point means the temperature, or range, at which the solid turns liquid.

`CC(C)Oc1ccccc1N1CCN(Cc2cccc(C(=O)N3CCc4cc(N)ccc43)c2)CC1` [Cpd 1, (5-amino-2,3-dihydro-indol-1-yl)-{3-[4-(2-isopropoxy-phenyl)-piperazin-1-ylmethyl]-phenyl}-methanone]: the melting point was in the range of 137 to 139 °C. Further, the Ki at α1a-AR (setting [1]) turned out to be 1.5 nM. Moreover, at α1b-AR (setting [2]), the Ki was 301 nM. The inhibitory constant (Ki) at α1d-AR (setting [3]) worked out at 8.6 nM.
`CC(C)Oc1ccccc1N1CCN(Cc2cccc(C(=O)N3CCc4cc(NS(=O)(=O)c5ccc6ccccc6c5)ccc43)c2)CC1` [Cpd 2, naphthalene-2-sulfonic acid (1-{3-[4-(2-isopropoxy-phenyl)-piperazin-1-ylmethyl]-benzoyl}-2,3-dihydro-1H-indol-5-yl)-amide] displayed a melting point of 73 to 76 °C. For the same compound, the Ki at α1a-AR (setting [1]) was found to be 1.1 nM. Also, the inhibition constant (Ki) on α1b-AR (setting [2]) turned out to be 321 nM. For the same compound, at α1d-AR (setting [3]), the inhibition constant (Ki) was 9.7 nM.
In the same order, the values of `CC(C)Oc1ccccc1N1CCN(Cc2cccc(C(=O)N3CCc4cc(NS(=O)(=O)c5cccc6c(N(C)C)cccc56)ccc43)c2)CC1` [Cpd 3, 5-dimethylamino-naphthalene-1-sulfonic acid (1-{3-[4-(2-isopropoxy-phenyl)-piperazin-1-ylmethyl]-benzoyl}-2,3-dihydro-1H-indol-5-yl)-amide] are 80 to 83 °C, 65 nM, 3450 nM and 98 nM.
The compound `Cc1ccc(OC(=O)Nc2ccc3c(c2)CCN3C(=O)c2cccc(CN3CCN(c4ccccc4OC(C)C)CC3)c2)cc1` [Cpd 4, (1-{3-[4-(2-isopropoxy-phenyl)-piperazin-1-ylmethyl]-benzoyl}2,3-dihydro-1H-indol-5-yl)-carbamic acid p-tolyl ester] gave a melting point of 166 to 168 °C. For the same compound, the inhibition constant Ki at α1a-AR (Receptor Binding, Ki α1a-AR) turned out to be 2.4 nM. In addition, the affinity at α1b-AR (Receptor Binding, Ki α1b-AR), expressed as Ki, was 96 nM. For the same compound, on α1d-AR (Receptor Binding, Ki α1d-AR), the Ki was 20 nM.
`CC(C)Oc1ccccc1N1CCN(Cc2cccc(C(=O)N3CCc4ccc(NCc5c(F)cccc5F)cc43)c2)CC1` [Cpd 6, [6-(2,6-difluoro-benzylamino)-2,3-dihydro-indol-1-yl]-{3-[4-(2-isopropoxy-phenyl)-piperazin-1-ylmethyl]-phenyl}-methanone] displayed a melting point of 137 to 139 °C. Besides, the inhibition constant (Ki) on α1a-AR (setting [1]) is 2 nM. Besides, the Ki on α1b-AR (setting [2]) was 856 nM. For the same compound, on α1d-AR (setting [3]), the Ki was 2.4 nM.
The compound `CCCCCCCCc1ccc(CNc2ccc3c(c2)CCN3C(=O)c2cccc(CN3CCN(c4ccccc4OC(C)C)CC3)c2)cc1` [Cpd 23, {3-[4-(2-isopropoxy-phenyl)-piperazin-1-ylmethyl]-phenyl}-[5-(4-octyl-benzylamino)-2,3-dihydro-indol-1-yl]-methanone] displayed a melting point of 116 to 118 °C. In addition, the inhibition constant Ki on α1a-AR (setting [1]) was found to be 195 nM. In addition, the inhibition constant (Ki) on α1d-AR (setting [3]) turned out to be 317 nM.
With `CC(C)Oc1ccccc1C1CCN(Cc2cccc(C(=O)N3CCc4ccc(NC(=O)Nc5c(F)cccc5F)cc43)c2)CC1` [Cpd 60, 1-(2,6-difluoro-phenyl)-3-(1-{3-[4-(2-isopropoxy-phenyl)-piperidin-1-ylmethyl]-benzoyl}-2,3-dihydro-1H-indol-6-yl)-urea], the results for the Ki at α1a-AR (setting [1]), on α1b-AR (setting [2]) and at α1d-AR (setting [3]) were 0.4 nM, 121 nM and 0.4 nM, respectively.
For the compound `COc1ccccc1C1CCN(Cc2cccc(C(=O)N3CCc4ccc(NS(=O)(=O)c5c(F)cccc5F)cc43)c2)CC1` [Cpd 61, 2,6-difluoro-N-(1-{3-[4-(2-methoxy-phenyl)-piperidin-1-ylmethyl]-benzoyl}-2,3-dihydro-1H-indol-6-yl)-benzenesulfonamide], the Ki amounted to 15.5 nM on α1a-AR (setting [1]), 152 nM on α1b-AR (setting [2]) and 2.1 nM on α1d-AR (setting [3]).
Take `COc1ccccc1CN1CCN(Cc2cccc(C(=O)N3CCc4ccccc43)c2)CC1` [Cpd 64, (2,3-dihydro-indol-1-yl)-{3-[4-(2-methoxy-benzyl)-piperazin-1-ylmethyl]-phenyl}-methanone]: the Ki on α1a-AR (setting [1]) came out at 105 nM; at α1b-AR (setting [2]), 146 nM; at α1d-AR (setting [3]), 101 nM.
In the same order, the values of `CC(C)COc1ccccc1N1CCN(Cc2cccc(C(=O)N3CCc4ccccc43)c2)CC1` [Cpd 65, (2,3-dihydro-indol-1-yl)-{3-[4-(2-isobutoxy-phenyl)-piperazin-1-ylmethyl]-phenyl}-methanone] are 65 nM, 909 nM and 42 nM.
As for `CC(C)Oc1ccccc1N1CCN(Cc2cccc(C(=O)N3CCc4cc(Br)ccc43)c2)CC1` [Cpd 66, (5-bromo-2,3-dihydro-indol-1-yl)-{3-[4-(2-isopropoxy-phenyl)-piperazin-1-ylmethyl]-phenyl}-methanone], the Ki was 1.3 nM at α1a-AR (setting [1]), 82.8 nM on α1b-AR (setting [2]) and 0.3 nM on α1d-AR (setting [3]).
As to `CC(C)Oc1ccccc1N1CCN(Cc2cccc(C(=O)N3CCc4cc(Cl)ccc43)c2)CC1` [Cpd 67, (5-chloro-2,3-dihydro-indol-1-yl)-{3-[4-(2-isopropoxy-phenyl)-piperazin-1-ylmethyl]-phenyl}-methanone], the inhibition constant Ki at α1a-AR (setting [1]) is 2.1 nM and 12 nM; on α1b-AR (setting [2]), 1140 nM and 1260 nM; at α1d-AR (setting [3]), 14.7 nM and 22 nM.
Consider `CC(C)Oc1ccccc1N1CCN(Cc2cccc(C(=O)N3CCc4cc(F)ccc43)c2)CC1` [Cpd 68, (5-fluoro-2,3-dihydro-indol-1-yl)-{3-[4-(2-isopropoxy-phenyl)-piperazin-1-ylmethyl]-phenyl}-methanone], for which the values for the Ki on α1a-AR (setting [1]), on α1b-AR (setting [2]) and at α1d-AR (setting [3]) were 13 nM, 288 nM and 13 nM, respectively.
On to `CC(C)Oc1ccccc1N1CCN(Cc2cccc(C(=O)N3CCc4cc(S(=O)(=O)N(C)C)ccc43)c2)CC1` [Cpd 70, 1-{3-[4-(2-isopropoxy-phenyl)-piperazin-1-ylmethyl]-benzoyl}-2,3-dihydro-1H-indole-5-sulfonic acid dimethylamide], for which the inhibition constant Ki on α1a-AR (setting [1]) amounted to 107 nM; at α1b-AR (setting [2]) it was 1760 nM; at α1d-AR (setting [3]), 41 nM.
Regarding `CC(C)Oc1ccccc1N1CCN(Cc2cccc(C(=O)N3CCc4cc(S(C)(=O)=O)ccc43)c2)CC1` [Cpd 71, {3-[4-(2-isopropoxy-phenyl)-piperazin-1-ylmethyl]-phenyl}-(5-methanesulfonyl-2,3-dihydro-indol-1-yl)-methanone], the inhibition constant (Ki) was 14 nM and 17.5 nM at α1a-AR (setting [1]); 716 nM and 720 nM on α1b-AR (setting [2]); 16 nM and 21 nM at α1d-AR (setting [3]).
With `CC(C)Oc1ccccc1N1CCN(Cc2cccc(C(=O)N3CCc4cc(-c5ccccc5)ccc43)c2)CC1` [Cpd 72, {3-[4-(2-isopropoxy-phenyl)-piperazin-1-ylmethyl]-phenyl}-(5-phenyl-2,3-dihydro-indol-1-yl)-methanone], the values for the Ki on α1a-AR (setting [1]), on α1b-AR (setting [2]) and at α1d-AR (setting [3]) were 15 nM, 154 nM and 46 nM, respectively.
Take `CC(C)Oc1ccccc1N1CCN(Cc2cccc(C(=O)N3CCc4ccc(NC(=O)Nc5c(F)cccc5F)cc43)c2)CC1` [Cpd 73, 1-(2,6-difluoro-phenyl)-3-(1-{3-[4-(2-isopropoxy-phenyl)-piperazin-1-ylmethyl]-benzoyl}-2,3-dihydro-1H-indol-6-yl)-urea]: the inhibition constant (Ki) on α1a-AR (setting [1]) was found to be 31 nM; at α1b-AR (setting [2]) it was 208 nM; at α1d-AR (setting [3]), 1.5 nM.
